Experiment [1] relates to pericytes stimulated by PACAP. Kind of experiment: inhibition of PACAP-induced relaxation of pericytes on silicone substrate. Format: cell-based. As to the method: The contractile state of the pericyte was quantified by counting the number of wrinkles (N) and the length of each wrinkle (l) in the thin shin sheet of silicone. From these observations an index of contractility (Ci) was developed from […]. An experiment to determine the effect of vasoactive agents was conducted by first quantifying Ci with the pericyte in physiological buffer (“control”). The Ci was quantified after exposing the pericytes to a vasoactive agent and allowing the pericyte to reach a steady-state level of contractility, which usually took 10 minutes. The effect of the vasoactive agent was determined by dividing by the Ci in the control condition and multiplying by 100 to obtain an index of effect (Ie,%) that was either less than 100 (pericyte relaxed relative to control) or greater than 100 (pericyte contracted relative to control). As a further control, incubations with buffer alone for the complete duration of exposure to each vasoactive agent were performed in conjunction with each experiment.
The present inventors further identified protein kinase A (PKA) as being affected by the increase in cAMP following the binding of PACAP or VIP. For this purpose cells were grown on silicone substrate and contacted by a 10^−8 M concentration of PACAP.
The present inventors have also shown that the relaxing effect of PACAP on pericyte contraction was in part mediated by the intracellular pathway that mobilises Ca^2+ from intracellular stores.

In a further experiment the test system is retinal pericytes. Kind of experiment: cells. As to conditions: for effect on contractile state of retinal pericytes (in words): pericytes on silicone substrate, 10 minutes per concentration. As to the method: A small volume of dimethylpolysiloxane (Sigma Chemical Co.) of either 60,000 cps (DMPS-60M) or 12,500 cps (DMPS-12M) viscosity was applied to 12 mm diameter glass cover slips. In some cases an intermediate viscosity dimethylpolysiloxane (30,000 cps) was prepared by blending 54% by weight of 60,000 cps dimethylpolysiloxane with 46% by weight of 12,500 cps dimethylpolysiloxane. The coated cover-slip was heated for 2 seconds using a Bunsen burner to induce cross-linking of the surface of the dimethylpolysiloxane and formation of a thin silicone rubber sheet bonded to the cover slip. After preparation, the cover slips were placed in 24-well tissue culture dishes and sterilised by UV irradiation overnight.
Pericytes from primary cultures (first passage) were plated on the cover slips in DMEM supplemented with 10% FCS.
The response of the cells to the antagonists was evaluated using phase contrast microscopy at room temperature. […] Cells were identified as relaxed when the tension wrinkles associated with them diminished in size, and completely relaxed when the wrinkles disappeared. Conversely, a pericyte contracted when there was an increase in the number and length of the wrinkles associated with the pericyte. During each experiment, an image of the pericytes was captured (videocamera and framegrabber) by the computer every minute. The wrinkles were analysed after the experiment from these captured images.
In each of the experiments, the length of each clearly discerned wrinkle associated with the cell was measured 3 times, and the average of the lengths was tabulated. The two ends of a wrinkle were determined by the contrast difference from the background on the picture. The contrast settings on the computer, videocamera or framegrabber were set at the commencement of an experiment and then not changed during the course of an experiment. Similarly, the focus of the microscope was set at the commencement of the experiment and then not changed during the course of an experiment. The depth (level) of solution in the bath was also kept constant, by aspirating and injecting each new solution at the same rate. Thus the only change in the image of the wrinkle (contrast, length) was due to the tension induced in the silicone substrate by the pericyte. The wrinkles during each experimental condition were counted from the photographs with help of a Zeiss videoplan.
The contractile state of the pericyte was quantified by counting the number of wrinkles (N) and the length of each wrinkle (l) in the thin shin sheet of silicone. From these observations an index of contractility (Ci) was developed from […]. An experiment to determine the effect of vasoactive agents was conducted by first quantifying Ci with the pericyte in physiological buffer (“control”). […] As a further control, incubations with buffer alone for the complete duration of exposure to each vasoactive agent were performed in conjunction with each experiment.
For this purpose cells were grown on silicone rubber. On the day of experiment the cells were rinsed with HEPES-buffered solution for 20 min at room temperature. Then the pericytes were exposed to norepinephrine (N5785, Sigma, USA) at different concentrations (10^−6M, 10^−5M, 10^−4 M) by a rapid exchange of the entire solution. The pericytes were exposed to each new drug concentration for a total of 10 minutes, with an image of the pericytes taken every 1 min.

Read-outs that look alike come from different tables or passages of the source.

`Nc1ncnc2c1ncn2[C@@H]1O[C@@H]2COP(O)(=S)O[C@H]2[C@H]1O` (single isomer, unassigned) [Rp-cAMPS, adenosine 3′,5′-cyclic monophosphothioate, Rp-isomer]: the EC50 in experiment [1] (10^−8 M PACAP, 10, 30, 100 μM added sequentially, 10 minutes each, FIG. 6, read-out: EC50 of inhibition of the relaxing effect of PACAP) came to 26 µM. For `O=S(=O)(NCCNCC=Cc1ccc(Br)cc1)c1cccc2cnccc12` [H-89, N-(2-[p-bromocinnamylamino]-ethyl)-5-isoquinolinesulfonamid-e], the “effect on the relaxing effect of PACAP” value in experiment [1] (10^−8 M PACAP, inhibitor at 0.3 μM) was “inhibited the relaxing effect”.

Take `O=C(O)c1ccccc1Nc1ccccc1` [N-phenylanthranilic acid]: in the experiment on retinal pericytes, the “effect on contractile state of retinal pericytes (in words)” value (“effect on contractile state” below) is given as “can influence the contractile state of retinal pericytes”.

Take `NC[C@H](O)c1ccc(O)c(O)c1` [NE, norepinephrine]: the “effect on contractile state” value with retinal pericytes is “contracting in a dose-dependent manner”. For the same compound, the EC50 with retinal pericytes (read-out: EC50 of pericyte contraction of silicone substrate) was found to be 8 µM. For the same compound, in the experiment with retinal pericytes (retinal pericytes, FIG. 3), the “concentration causing contraction of pericytes” value is given as “greater than 10^−6 M” and the “concentration giving maximum enhancement of contractile state of the pericytes” value is reported as 10^−4 M. Turning to `C[C@@H](C(=O)O)c1ccc(-c2ccccc2)c(F)c1` [R-flurbiprofen, flurbiprofen], in the experiment with retinal pericytes, the “effect on contractile state” value is reported as “can influence the contractile state of retinal pericytes”. Regarding `COc1ccc2c(c1)CC[C@@H]1[C@@H]2CC[C@]2(C)[C@@H](NCCCCCCN3C(=O)C=CC3=O)CC[C@@H]12` [U73122, 1-[6-([(17β)-3-Methoxyestra-1,3,5(10)-trien-17-yl]amino)hexyl]-1H-py-rrole-2,2-dione], the “effect on PACAP-induced relaxation of pericytes” value in experiment [1] (inhibitor at 10 μM) was “antagonist of the PACAP-induced relaxation of pericytes”. In the case of `CC[C@H](C)[C@H](NC(=O)[C@H](CO)NC(=O)[C@H](CC(N)=O)NC(=O)[C@H](CC(C)C)NC(=O)[C@H](Cc1ccc(O)cc1)NC(=O)[C@H](CCCCN)NC(=O)[C@H](CCCCN)NC(=O)[C@@H](NC(=O)[C@H](C)NC(=O)[C@H](CCSC)NC(=O)[C@H](CCC(N)=O)NC(=O)[C@H](CCCCN)NC(=O)[C@H](CCCNC(=N)N)NC(=O)[C@H](CC(C)C)NC(=O)[C@H](CCCNC(=N)N)NC(=O)[C@@H](NC(=O)[C@H](Cc1ccc(O)cc1)NC(=O)[C@H](CC(N)=O)NC(=O)[C@H](CC(=O)O)NC(=O)[C@@H](NC(=O)[C@H](Cc1ccccc1)NC(=O)[C@@H](NC(=O)[C@H](C)NC(=O)[C@H](CC(=O)O)NC(=O)[C@H](CO)NC(=O)[C@@H](N)Cc1c[nH]cn1)C(C)C)[C@@H](C)O)[C@@H](C)O)C(C)C)C(=O)N[C@@H](CC(C)C)C(=O)N[C@@H](CC(N)=O)C(N)=O` [VIP, vasoactive intestinal polypeptide], the EC50 with retinal pericytes (read-out: EC50 concentration, effect on contractility of pericytes (relaxation), contractility index below 100 = relaxed, data averaged from cells, FIGS. 4, 5) is 0.048 µM.

Consider `O=C(O)c1ccccc1Nc1cccc(C(F)(F)F)c1` [flufenamic acid], for which the “effect on contractile state” value with retinal pericytes is given as “can influence the contractile state of retinal pericytes”.

Values taken from patent publication US20110206612A1, “NOVEL SCREENS TO IDENTIFY AGENTS THAT MODULATE RETINAL BLOOD VESSEL FUNCTION AND PERICYTE FUNCTION AND DIAGNOSTIC AND THERAPEUTIC APPLICATION THEREFOR” (UNIVERSITY OF TECHNOLOGY, SYDNEY, priority 2002, published 2011).
